Measurements taken from the NIST ThermoML archive (doi:10.1016/j.tca.2013.02.006).
± gives the expanded uncertainty stated by the source.

Tests used:
[1] = refractive index (Na D-line) (dimensionless); settings: 298.2 K; 101.33 kPa; Liquid; Standard Abbe refractometry
[2] = 101.33 kPa, Liquid, Vibrating tube method

refractive index [1] | mass density ([2]; 298.2 K) [kg/m3] | mass density ([2]; 293.2 K) [kg/m3] | Structure (SMILES)
1.4412 ± 0.0008 | 829.76 ± 0.24 | – | CCCCCCCCCCCCO [dodecan-1-ol]
1.4349 ± 0.0008 | 826.48 ± 0.24 | – | CCCCCCCCCCO [decan-1-ol]
1.4586 ± 0.0008 | – | 843.94 ± 0.24 | CCCCCCCCCCCCS [1-dodecanethiol]
